“Also recorded” adds a separate entry of the source. Where no end group is shown, it is not given here. The star is where a group is joined. Myristoyl = CCCCCCCCCCCCCC(=O)*
Experiments:
[1] = Aristolochic acid nephropathy (AAN) model of renal fibrosis; format: in vivo; conditions: vs equimolar PTL060 or pure PAR-1 antagonist
ApoE−/− mice [2] = experiment: Regression of established atheroma, weekly IV injections (Oil Red O en face, aortic root); format: in vivo, mouse; parameters: regression of atherosclerosis compared to PTL060 and untailed 3-MP: dose or concentration left out as unconfirmed
Protocol: For all atherosclerosis work, male ApoE−/− mice, from the age of 6-weeks, were fed with a high fat diet (HFD) consisting 35 kcal % fat, 1.25% cholesterol, and 0.5% cholic acid (Special Diet Services, Essex UK). Aortas were transplanted 2 weeks after starting the HFD, using a sleeve anastomosis technique described previously^11. Briefly, a 5 mm of the segment of the infrarenal donor aorta, flushed with 300 μl of saline containing 50 U of heparin, was transplanted into ApoE−/− recipient abdomen aortas (N=6 per group). Blood flow was confirmed by direct inspection after removal of the clamps. Mice were fed a HFD for 6-12 weeks post-transplantation before the experiment was terminated (Suppl FIG. 1A). To assess prevention of atheroma, mice (n=6 per group) received a single injection of PTL060 or controls by tail vein, and the experiments terminated 1-3 weeks later (Suppl FIG. 1B). For regression experiments, baseline groups (n=6) were fed a HFD to the age of 22 weeks before the mice were sacrificed. Experimental or control groups (n=3-6 per group) received weekly injections by tail vein for 3-6 weeks, beginning at age of 22 weeks before the experiments were terminated when mice were 25-28 weeks old (Suppl FIG. 1C).
Atherosclerotic lesions were evaluated as previously described^11. Simply, the entire length of the aorta was perfused with PBS, dissected using a dissecting microscope, longitudinally opened and stained with Oil Red O (ORO) solution (Sigma, UK) for 30 minutes, before being photographed with a digital camera (DSC-W320, Sony, Japan). The total aortic area and lesional area were measured by using Image J. Aortas from every animal were assessed. To assess lesions in the aortic sinus, hearts were embedded in paraffin, sectioned through the aortic root and incubated with elastin/van Gieson stain using the Accustain™ Elastin Stain kit (Sigma). Sections were examined on an Olympus U-ULH optical microscope (Olympus Optical Co. Ltd, Tokyo, Japan). Atheromatous lesional and total aortic root area was determined using Image-Pro Plus TM software version 4.0 (Media Cybernetics, Silver Spring, USA). At least three random sections were examined from each mouse in all groups.

C57BL/6 mice [3] = experiment: Ischaemia reperfusion injury, acute kidney injury; format: in vivo, mouse; conditions: 2 doses 7.5 mg/ml
Protocol: In more detail, Model 3: Ischaemia reperfusion injury: PTL0GC-1 induces quicker recovery, associated with reduced fibrosis, post acute kidney injury. Both kidneys of C57BL/6 mice were exposed under recovery anaesthesia, and both renal arteries completely occluded by clamps for 30 minutes, prior to release. 2 doses of PTL0GC-1 (7.5 mg/ml) or saline were administered to the mice immediately prior to clamping, and immediately prior to clamp release. Mice were allowed to recover and then monitored for 3 weeks, prior to euthanasia.

C57BL/6 mice [4] = experiment: Delayed type hypersensitivity, contact sensitivity to oxazolone (ear swelling); format: in vivo, mouse
Protocol: C57BL/6 mice were topically sensitised with oxazolone on the shaved abdomen on day 0. Treatment with either saline, PTL060 (10 mg/g), equimolar PTL0GC-1 or equimolar *3-MP was given on day 3 and day 5, the last immediately prior to re-challenge with oxazolone onto the right ear. The left ear was treated with vehicle alone. On day 6, the difference in swelling of the right and left ears was measured and is presented as D mean ear thickness.
This example uses a model of contact hypersensitivity. Here, mice are challenged on the abdomen with the contact sensitizer oxazolone, before a re-challenge […] on both sides of the ear with oxazolone (on the right) or vehicle alone (on the left).
Swelling of the ears, measured with a micrometer, reflects the influx of monocytes/macrophages and T cells in a typical delayed-type hypersensitivity (DTH) response.
FIG. 19: Model of DTH involving contact sensitivity to oxazolone. WT mice were administered a PAR-1 agonist or antagonist at the point of second exposure to oxazolone, before ear thickness was assessed 24 hours later, and mice sacrificed for immunohistological analysis of cross sections of the affected ears, to determine the proportional area occupied by CD68+ cells (macrophages). *p<0.05. **p<0.01. ***p<0.001

ApoE−/− mice [5] = experiment: Regression by weekly adoptive transfer of CD11b+ cells / monocytes pre-incubated with compound; format: in vivo, mouse; conditions: HFD 16 weeks, weekly IV 6 weeks; monocytes pre-treated 30 minutes, PTL060 100 microM or PTL0GC-1 25 microM
Protocol: In more detail, mechanistic insights: direct effect on monocyte/macrophage phenotype. ApoE−/− mice were fed a high fat diet for 16 weeks (baseline), prior to weekly IV treatment for 6 weeks with monocytes from BL6 mice, pre-treated for 30 minutes with either PTL060 (100 microM) or PTL0GC-1 (actually used at ¼ concentration-25 microM).
Extent of atherosclerosis was explored by en face examination of the surface area of aorta containing plaques using Oil-Red-O
Leukocytes were isolated from the blood of mice aged 8-10 weeks, using anti-CD11b MicroBeads (Miltenyi Biotec Ltd, Surrey, UK) according to manufacturers' instructions. For cell labelling, 2×10^7 CD11b+ cells were incubated with 4×10^−6 M of either PKH26 or PKH2 fluorescent dyes (Sigma, UK) for 5 minutes at 25° C. according to manufacturers' protocols, with the reaction stopped using 1% BSA in PBS followed by three washes. Each recipient mouse received 0.5×10^6 cells by IV injection; in some experiments, the cells were incubated with PTL060 (100 μM in 0.5 mls) or equimolar controls for 30 minutes at room temperature and washed three times before immediate injection. For viability assays, murine bone marrow cells were incubated for 5 days in 6 well plates, counted and re-seeded at 2×10^5 cells/ml in 24 well plates with 25 ng/ml MCSF. […]

For “[Myr2]-KSSKSPSKKDDKKPGDK(CO—CH2-S—CH2-CH2-Phe-Cha-Cha-Arg-Lys-Pro-Asn-Asp-Lys-NH2)NH2 (K(Myristoyl)SSKSPSKKDDKKPGDK-NH2; not fully specified (residue 17, N-terminus); also: branched: thioether-linked Phe-Cha-Cha-Arg-Lys-Pro-Asn-Asp-Lys-NH2 on Lys17 side chain) [PTL0GC-1]”, the “development of renal fibrosis, being confirmed” value [1] was “inhibits development of renal fibrosis”, the “regression of atherosclerosis, being confirmed” value (ApoE−/− mice [2]; ApoE−/− mice, vs equimolar PTL060 or pure PAR-1 antagonist) was “causes significant regression of atherosclerosis” and the “regression of atherosclerosis compared to PTL060 and untailed 3-MP” value (ApoE−/− mice [2]; HFD 16 weeks, weekly IV for 6 weeks, equimolar to PTL060) was “Superior regression”. The “impact on the AKI” value (C57BL/6 mice [3]; prior to clamping and prior to clamp release, renal arteries clamped 30 minutes) was “no impact on the AKI”, the “kidney fibrosis, histological analysis” value (C57BL/6 mice [3]; 3 weeks) was “trend towards less fibrosis” and the “renal function” value (C57BL/6 mice [3]; by 3 weeks) was “better renal function by 3 weeks”. For the same substance, the “body weight during recovery phase” value (C57BL/6 mice [3]; monitored 3 weeks) was “gain weight quicker”, the “DTH response, IP and SC administration” value (C57BL/6 mice [4]; intraperitoneal or subcutaneous, day 3 and day 5) was “efficacy of both IP and SC administration; also recorded: can inhibit the DTH response” and the “difference in ear swelling (D mean ear thickness)” value (C57BL/6 mice [4]; intravenously, day 3 and day 5, equimolar to PTL060 (10 mg/g), vs PTL060 and 3-MP) was “biggest effect”. For the same substance, the “macrophage infiltration into the skin” value (C57BL/6 mice [4]; model of DTH) was “reduced macrophage infiltration into the skin” and the “regression after transfer of pre-treated monocytes” value (ApoE−/− mice [5]) was “the same degree of regression associated with IV treatment of the same reagents; also recorded: superior regression”.
